For one series, the system named is B cells. It is filed as cell-based.
The nature of series [1]: Mouse LD50 (modified LD50 technique). Type of series: in vivo. The settings on record: for LD50: IV.
Series [2] has as its system splenocyte recall response to Ova. As to the kind of experiment: Splenocyte recall cultures from ovalbumin-challenged treated mice. It is filed as in vivo, mouse. Set-up: IL-4, Avg. of Group: unit not given here. As for the experimental part:
In another study, BALB/c mice were sensitized with 0.1 mg of ovalbumin (OVA) or PBS (diluent control) intraperitoneally. Eight days following initial sensitization mice were challenged intratracheally with 1% ovalbumin or PBS (diluent control). On days fifteen, eighteen, twenty one, and thirty four, mice were challenged intratracheally with 2% ovalbumin of PBS. […] Thirty minutes following treatment, mice were challenged intratracheally with 2% OVA and sacrificed 3 hours after OVA challenge. […] On day 34 mice were re-challenged intratracheally with either 2% OVA or PBS. Mice were sacrificed 3 hours after challenge. Following sacrifice on day 21 or 34, lungs were collected for histopathology and for isolation of cells for total cell counts and identification by FACS analysis. Serum was collected for IgE and IL-4 levels. Spleens were collected for cytokine and antibody recall responses.

The test system of series [3] is chemokine induced calcium flux. As to the kind of experiment: Intracellular calcium flux in THP-1 cells (Fura2). Type of series: cell-based, human. How it is done:
CRD-Leu4Ile11Cys13 peptide 3(3-12)[MCP-1] at 6.7 μg/ml was incubated with THP-1 cells (2×10^6 cells/ml) for 25 minutes prior to exposure to agonist (10 ng/ml) and measurement of flux. The second exposure to agonist is 2 minutes later. Fluorescence is measured at 510 nm.
Monocytes, eosinophils, neutrophils and lymphocytes loaded with Fura-2 (0.1 nmol/10^5 cells) are stimulated with a chemokine in the presence or absence of the therapeutic agent, and [Ca^2+]i-related fluorescence changes are recorded (Von Tschanner et al., Nature, 324, 369 (1986)). […] The Fura-2 fluorescence of the monocyte suspension is measured at 37° C. in a single excitation, single emission (500 nm) wavelength Perkin-Elmer LS5 fluorometer. [Ca^2+]i is calculated from changes in fluorescence measured at a single excitation wavelength of 340 nm.
After peptide 3 binds to its receptor, it may block proteins required to effect the response (e.g., block specific integrins needed for chemokine-induced migration but not fNLP or TGFb induced migration), down regulate a chemokine receptor, or interfere with signal transduction mechanisms. Interference with signal transduction mechanisms can be detected in either a direct or indirect manner (for example, using assays for measuring intracellular calcium flux, cAMP, pI3, kinase activity, and DAG).

A short description of series [4]: Competition of 125I-MCP-1 binding to heparin-coated agarose beads. Conditions: 10^−11 to 10^−4 M. The text has this: Chemokines bind to glycosaminoglycans on the cell surface, which may facilitate chemokine receptor binding and subsequent signaling. […] This was followed by a monophasic displacement curve at concentrations of approximately 10^−7 to 10^−5 M MCP-1.

The subject of series [5] is lung CD3, CD4, B220 cells. The experiment in a line: Lung cell number and type in normal mice. Conditions: high dose, all routes of administration, versus PBS controls. It is filed as in vivo, mouse. How it is done: To determine whether increasing doses of CRD-Leu4Ile11Cys13 peptide 3(3-12)[MCP-1] alters the cell number and type of cell within the lungs of normal mice, mice were injected intravenously, intravenously and intratracheally, or intratracheally alone with CRD-Leu4Ile11Cys13 peptide 3(3-12)[MCP-1]. Mice were sacrificed at 20-24 hours post injection. Lungs were collected for isolation of cells, which were subsequently counted and characterized by surface staining for CD3, CD4, CD8, B220, and Mac-1.

A short description of another series: in vivo. Conditions: female, Sprague-Dawley, rat, iv, 8.8 mg; for dose excreted: rats, 8.8 mg i.v.
Another series addresses T1, 5-HT1a receptors (Homo sapiens, UniProt P08908).
T1 construct: purchased RBI/Sigma S-160
The experiment in a line: 5HT1a serotonin receptor membrane binding (3H-8-OH-DPAT). As for the experimental part:
For 5HT1a serotonin receptors, membranes (S-160, RBI/Sigma) are diluted into binding buffer (50 mM Tris pH 7.4 10 mM MgCl2 and 0.5 mM EDTA, with ascorbate at 1 mg/ml added immediately before use), e.g., 10 μl of membranes in 500 μl assay volume (i.e., 1:50 dilution). Cold competitor or test competitor is then added, e.g., 5 μl of 100× stock solution such as 5 μl of 1 mM oxymetazoline. […] The tubes are vortexed then spun briefly. The mixtures are incubated for 1 hour at 4° C. The mixtures are filtered through GF/C filters pre-soaked in polyethyleneimine (0.3% in MilliQ water). The tubes are washed with 2-3 ml of wash buffer and filtered. The filter is washed with 3×5 ml of wash buffer, and air dried. 4.5 ml of scintillant is added to the dried filter in a scintillation vial and the filter counted on a tritium channel.

The test system of another series is gp120. The settings on record: ns = not significantly different from control; >100 = ED50 not determined.

For orientation: half-life means how long it takes for the measured level to halve. In general, EC50 refers to the concentration at which the effect is half-maximal. The pKa is the negative logarithm of the acid dissociation constant. By solubility is commonly meant how much of the substance goes into solution per volume.

Converted amounts (≈) assume the structure as drawn. Like-named read-outs stand apart in the source and are kept apart here. Positions of bridges follow the written chain, without caps; N, C: chain ends. Non-standard residues stand in square brackets, D forms with d. Residues, ends and D or L forms follow the SMILES beside them. No end group written: not given here.

T1 sequence (P08908 whole entry): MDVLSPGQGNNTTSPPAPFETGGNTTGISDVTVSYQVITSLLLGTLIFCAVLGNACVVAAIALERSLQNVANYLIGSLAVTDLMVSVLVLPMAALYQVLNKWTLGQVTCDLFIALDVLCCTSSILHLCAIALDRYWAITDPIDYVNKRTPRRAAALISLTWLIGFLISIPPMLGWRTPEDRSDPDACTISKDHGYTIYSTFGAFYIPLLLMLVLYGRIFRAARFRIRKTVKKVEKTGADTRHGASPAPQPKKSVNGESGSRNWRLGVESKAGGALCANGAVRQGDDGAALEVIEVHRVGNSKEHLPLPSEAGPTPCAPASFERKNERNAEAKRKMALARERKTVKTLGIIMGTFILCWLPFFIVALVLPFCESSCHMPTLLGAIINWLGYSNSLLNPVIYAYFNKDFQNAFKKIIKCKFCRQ

With `CC[C@@H](C)[C@H]1NC(=O)[C@@H](CCC(N)=O)NC(=O)[C@H](N)CSSC[C@H](C(N)=O)NC(=O)[C@@H](CC(C)C)NC(=O)[C@@H](CC(=O)O)NC(=O)[C@H]2CCCN2C(=O)[C@@H](CCCCN)NC(=O)[C@@H](CCC(N)=O)NC(=O)[C@@H](CCCCN)NC(=O)[C@@H](Cc2c[nH]c3ccccc23)NC1=O` (H-[dC][dQ][dI][dW][dK][dQ][dK][dP][dD][dL][dC]-NH2; disulfide 1-11; N-terminus assumed), the “effect on proliferation of B cells to tetanus toxoid” value with B cells is “no effect”. For the same molecule, the “lethality after intraperitoneal administration” value in [1] (11 mg i.p.) is given as “did not result in lethality”. In series [1], the LD50 is given as 11.4 mg/mouse. In addition, in [1] (in vivo, read-out: LD50), the LD50 is 569 mg/kg. Moreover, the “IL-4, Avg. of Group” value in series [2] (Group 5: Ova days 8, 15, 18, 21, peptide BID 14 days, sacrifice day 34 (No recent Ova challenge), 0 μg/ml Ova) came to 8.05. Besides, in [2] (Group 5, 5 μg/ml Ova), the “Total IgE (1 week splenocyte cultures)” value came to 0.082 ng/mL and the “Total IgE (1 week splenocyte cultures), Avg.” value is listed as 0.021. Also, in series [3], the “effect on MCP-1 induced calcium flux” value is on record as “did not block” and the “effect on SDF-1 induced calcium flux” value is “did block”. In addition, the “displacement of 125I-MCP-1 from heparin-coated agarose beads” value in series [4] was “did not result in displacement”. In addition, in series [5], the “percentages of CD3, CD4 and B220 cells in lungs of normal mice” value is reported as “significantly reduced”. The molecule also registered a half-life in “in vivo” of around 10 min. In the series “in vivo” (administered dose recovered in urine over 24 hours), this molecule had a dose excreted of around 70%. Also, in the series “in vivo” (dose excreted in urine over the first two hours), the dose excreted is above 55%.

As to `C=CCCCCCCCCC(=O)N[C@H]1CCC(=O)NC1=O` [A-I (NR58.4), [3S]-3-(undec-10-enoylamino)piperidine-2,6-dione], the “selectivity for MCP-1 inhibition over serotonin receptor binding” value at 5-HT1a receptors is on record as “approximately 40,000 fold”. This molecule also returned an EC50 at 5-HT1a receptors (100 μM highest concentration tested) of 80 µM. The same molecule came in with a pKa in “physchem” of around 11. Also, the solubility in the series “physchem” (organic solvent or mixture) is above 200000 µg/mL; in “physchem” (pH 11, water), 5000 µg/mL (≈ 17 mM).

As to “SYRRITSSKCPKEAV [peptide 2(1-15)[MCP-1]]”, the “gp120 ED-50” value in the series on gp120 was found to be 0.4 µM.

Source of the values: US7989466B2, “Methods to inhibit or augment an inflammatory response” (Cambridge Enterprise Limited, priority 1999, dated 2011).
